These are literature values, as cited in patent US20260009077A1, “COMPOSITIONS AND METHODS FOR TREATING HYPOTHYROIDISM” (THE UNIVERSITY OF CHICAGO, priority 2022, published 2026).

SMILES strings stand for the structures.

On to `N[C@@H](Cc1cc(I)c(Oc2cc(I)c(O)c(I)c2)c(I)c1)C(=O)O` [levothyroxine], for which the “proportion of patients noticing reemergence of hypothyroid symptoms” value (after switch from T4 and T3 containing treatment to T4 only, despite appropriate T4 doses) was 15-20%. In addition, for the setting “hypothyroidism patients, daily tablets, standard of care”, the “patients in whom treatment restores normal life” value is given as “at least 80%”.
